The record followed here is PMC8842605, “Novel Derivatives of diphenyl-1,3,4-oxadiazol as Ligands of Benzodiazepine Receptors; Synthesize, Binding Assay and Pharmacological Evaluation” (Iranian Journal of Pharmaceutical Research : IJPR, 2021).

Data set [1] deals with pentylenetetrazol-induced seizure. Nature of the data set: Pentylenetetrazol (PTZ) test. Conditions: Mus musculus, 0.5 h; mice, 30 min after administration; number of dead animals; read-out: ED50 (95% CI), PTZ test. The data set is classed as in vivo. An excerpt: (§1) Two useful seizure models (MES and PTZ) were organized for evaluation of the anticonvulsant activities of novel synthesized compounds. In these experiments, the capability of novel synthesized compounds to prevent the maximal electro shock-induced seizure and pentylenetetrazol-induced seizure were screened. MES test (60 Hz, 50 mA, 0.2 s) was done according to the method described by Toolabi et al. (2020). PTZ test was done Using the mothed described by Ranjbar-ekbatan et al. (2019). These experiments were applied 30 min after administration of the novel compounds. The number of HLTE (hind limb tonic extension) in the MES test and the number of dead animals in the PTZ test were counted ([30]–[32]).

Data set [2] deals with mice. The experiment in a line: Open field test. The data set is classed as in vivo. Conditions: Mus musculus, ip, intraperitoneal, 30 min before test, total distance movement, read-out: ED50 (95% CI), Open field test. On the procedure:
To the assessment of the sedative effects and locomotor activities of the novel synthesized compounds, the open field test was performed. […] The total distance movement was recorded for 10 min by a digital camera and then was calculated by an automated tracking system (Ethovision XT software, Noldus, The Netherlands) ([24]).

In data set [3] the test system is mice. Nature of the data set: Elevated plus maze test. Conditions: Mus musculus, percentage of time spent in open arms, read-out: ED50 (95% CI), Elevated plus maze test. The data set is classed as in vivo. The protocol: To assay the anti-anxiety effects of novel synthesized compounds, the elevated plus-maze test was used. The apparatus of the elevated plus-maze test is prepared of two open arms (30 × 5 × 0.5 cm) and two close arms (30 × 5 × 35 cm) with an open roof and was set at a height of 50 cm above the floor.

Data set [4] relates to mice. The experiment in a line: Pentobarbital induced sleep test. Conditions: Mus musculus, read-out: ED50 (95% CI), Pentobarbital induced Sleeping test.
The test system of data set [5] is maximal electro shock-induced seizure. Nature of the data set: Maximal electro shock (MES) test. The data set is classed as in vivo. Conditions: Mus musculus, 0.5 h; mice, 30 min after administration; 60 Hz, 50 mA, 0.2 s; HLTE; read-out: ED50 (95% CI), MES test.
Source text: as §1

Data set [6] concerns the target benzodiazepine receptor. Nature of the data set: Radioligand competition binding with [3H]-flumazenil. The following applies: rat brain membrane; for IC50: 35 min at 30 °C, read-out: IC50 (95% CI); for Ki: Cheng-Prussof equation. The protocol: Temporarily, the brain tissue of Male Sprague-Dawley rats (200-250 g weight) were used as the source of the benzodiazepine receptors. These tissues were collected, homogenized in 20 mL of ice‐cold Tris‐HCl buffer and centrifuged at 600 g for 10 min. in the next step, the supernatant was centrifuged 37000xg for 15 min at 4 °C. […] The Bradford method using bovine serum albumin as a standard, was applied for quantification of protein in the separated membrane. Saturation and competition experiments are two basic methods of receptor binding studies. […] NSB was determined in parallel assays performed in the presence of 100 μM diazepam. Competition experiments were used to measure the percentage inhibition of radioligand specific binding (IC50) and affinity (Ki) of the novel synthesized ligands and diazepam, using the Cheng-Prussof equation.
In general terms: In a radioligand displacement assay an active substance lowers the binding of a labelled ligand.

Data set [7] concerns mice. Nature of the data set: Grip strength test. The data set is classed as in vivo. The following applies: Mus musculus, 0.5 h, read-out: ED50 (95% CI), Grip strength test. On the procedure:
To assessment the muscle relaxant effects of novel synthesized compounds by measuring the maximum force applied to the digital force meter, the grip strength test was prepared. This assessment was guided using the modified method explained by Bachstetter et al. (2014). The test was repeated 3 times for each mouse, 30 min after injection of the novel compounds ([29]).

In data set [8] the test system is mice. Nature of the data set: Passive avoidance test. The data set is classed as in vivo. Conditions: Diazepam 2 mg/kg. The text has this: To determine the effects of novel synthesized compounds on learning and memory disorder, the passive avoidance test was done. The passive avoidance apparatus consists of two compartments, that one of them is brightly lit (white compartment) and another one is dimly lit (black compartment). A sliding door divides these two compartments. […] After arriving in the black compartment, it was received a mild unpleasant electrical stimulation (0.5 mA for 2 s) through the grid floor. During the test phase, the animal was relocated in the white compartment. However, there was no electric stimulation in the dark compartment. The latency to enter the dark compartment was recounted ([34],[35]).

The subject of data set [9] is mice. Nature of the data set: Rotarod test. The data set is classed as in vivo. Conditions: 30 min after injection, 6 rpm, 1 min, Diazepam 2 mg/kg. The protocol:
For evaluation of the motor coordination and balance capability, the rotarod test was used. Concisely, 30 min after injection of the novel compounds and Diazepam (2 mg/kg), each animal was located on a rotating rod (6 rpm, 1 min). In this experiment, the average time latency to fall for each animal was noted ([33]).

Where [10] appears, read: mice, 30 min after injection, maximum force.

By ED50 is commonly meant the dose that gives a 50% effect, or the effect in half of the subjects. Usually IC50 stands for the concentration needed to halve the response being measured. By Ki is commonly meant a measure of affinity in units of concentration, obtained from inhibition or displacement. Read a high Ki as a looser hold on the target. One may read the melting point as the temperature, or range, at which the solid turns liquid. Take `COc1ccc(C(=O)Nc2ccccc2-c2nnc(-c3ccccc3)o2)cc1` [Compound 7f, 4-methoxy-N-(2-(5-phenyl-1,3,4-oxadiazol-2-yl)phenyl)benzamide]: the melting point lay in the range of 216 to 217 °C. In [1], the ED50 was 136 mg/kg. In [2], the ED50 is 14.5 mg/kg. The ED50 in data set [3] turned out to be 12.7 mg/kg. Further, the ED50 in [4] amounted to 9.91 mg/kg. The 50% effective dose (ED50) in data set [5] was 136 mg/kg. Besides, in data set [6], the IC50 was 3.03 nM and the inhibition constant (Ki) worked out at 1.76 nM. In addition, the ED50 in [7] (setting [10]) was 26.7 mg/kg.
Take `CCC(=O)Nc1ccccc1-c1nnc(-c2ccccc2)o1` [Compound 7h, N-(2-(5-phenyl-1,3,4-oxadiazol-2-yl)phenyl) propionamide]: the melting point was 163 to 165 °C. Besides, the ED50 in [1] stood at 136 mg/kg. The 50% effective dose (ED50) in data set [2] was found to be 10.1 mg/kg. Besides, in data set [3], the ED50 worked out at 11.8 mg/kg. Besides, the ED50 in [4] is 5.28 mg/kg. Besides, the ED50 in data set [5] was found to be 118 mg/kg. Besides, in data set [6], the concentration for half-maximal inhibition (IC50) stood at 2.57 nM and the inhibition constant Ki turned out to be 1.49 nM. Moreover, the median effective dose (ED50) in [7] (setting [10]) came out at 24.6 mg/kg.
In turn, `O=C(O)CCC(=O)Nc1ccccc1-c1nnc(-c2ccccc2)o1` [Compound 7j, 4-oxo-4-((2-(5-phenyl-1,3,4-oxadiazol-2-yl)phenyl)amino)butanoic acid] displayed a melting point of 159 to 160 °C. The ED50 in data set [1] turned out to be 60.9 mg/kg. Besides, the ED50 in data set [2] was determined as 8.9 mg/kg. Besides, the 50% effective dose (ED50) in [3] stood at 9.77 mg/kg. Moreover, in data set [4], the ED50 was determined as 4.98 mg/kg. The ED50 in data set [5] turned out to be 40.8 mg/kg. Further, in [6], the IC50 was 1.66 nM and the affinity, expressed as Ki, was 0.96 nM. Further, the median effective dose (ED50) in data set [7] (setting [10]) worked out at 17.1 mg/kg.
The compound `CC(=O)Nc1ccccc1-c1nnc(-c2ccccc2)o1` [Compound 7g, N-(2-(5-phenyl-1,3,4-oxadiazol-2-yl)phenyl)acetamide] came in with a melting point of 155 to 157 °C. For the same compound, the ED50 in [1] was 147 mg/kg. The ED50 in data set [2] was 14 mg/kg. The ED50 in data set [3] worked out at 12.8 mg/kg. In addition, the ED50 in [4] is 9.45 mg/kg. Moreover, in data set [5], the median effective dose (ED50) came out at 186 mg/kg. In addition, in data set [6], the 50% inhibitory concentration (IC50) is 2.78 nM and the Ki is 1.61 nM. The ED50 in data set [7] (setting [10]) was found to be 28.8 mg/kg.
`O=C(Nc1ccccc1-c1nnc(-c2ccccc2)o1)c1ccccc1` [Compound 7a, N-(2-(5-phenyl-1,3,4-oxadiazol-2-yl)phenyl)benzamide] yielded a melting point of 188 to 189 °C. Further, the ED50 in [1] worked out at 276 mg/kg. Moreover, in [2], the ED50 was 27.7 mg/kg. The ED50 in [3] was 15.3 mg/kg. In data set [4], the 50% effective dose (ED50) is 22.7 mg/kg. The ED50 in data set [5] was 235 mg/kg. In data set [6], the half-inhibitory concentration (IC50) is 10.2 nM and the Ki came out at 5.95 nM. In addition, in [7] (setting [10]), the ED50 is 34.9 mg/kg.
Compound `O=C(O)c1ccccc1C(=O)Nc1ccccc1-c1nnc(-c2ccccc2)o1` [Compound 7i, 2-((2-(5-phenyl-1,3,4-oxadiazol-2-yl)phenyl)carbamoyl)benzoic acid] yielded a melting point of 196 to 198 °C. Further, the 50% effective dose (ED50) in data set [1] came to 45.1 mg/kg. Moreover, the ED50 in data set [2] was determined as 7.14 mg/kg. For the same compound, in data set [3], the ED50 turned out to be 8.71 mg/kg. Also, the ED50 in [4] was found to be 4.64 mg/kg. In data set [5], the median effective dose (ED50) is 26.7 mg/kg. Also, the IC50 in data set [6] came out at 1.54 nM. For the same compound, in data set [7] (setting [10]), the ED50 was 13.2 mg/kg.
As to `Cc1ccc(C(=O)Nc2ccccc2-c2nnc(-c3ccccc3)o2)cc1` [Compound 7d, 4-methyl-N-(2-(5-phenyl-1,3,4-oxadiazol-2-yl)phenyl)benzamide], the melting point lay in the range of 200 to 202 °C. For the same compound, the 50% effective dose (ED50) in data set [1] was 109 mg/kg. For the same compound, the 50% effective dose (ED50) in data set [2] turned out to be 18.8 mg/kg. The 50% effective dose (ED50) in [3] is 12.6 mg/kg. Besides, in data set [4], the median effective dose (ED50) is 13.1 mg/kg. Also, the ED50 in [5] amounted to 92.5 mg/kg. In addition, in [6], the IC50 came out at 4.26 nM and the affinity, expressed as Ki, was 2.47 nM. Also, in data set [7] (setting [10]), the ED50 was 29.4 mg/kg.
For `O=C(Nc1ccccc1-c1nnc(-c2ccccc2)o1)c1ccc([N+](=O)[O-])cc1` [Compound 7e, 4-nitro-N-(2-(5-phenyl-1,3,4-oxadiazol-2-yl)phenyl)benzamide], the melting point is 195 to 197 °C. Moreover, in data set [1], the ED50 came out at 45.2 mg/kg. Moreover, the ED50 in data set [2] came out at 19.1 mg/kg. For the same compound, in data set [3], the median effective dose (ED50) is 9.96 mg/kg. For the same compound, the ED50 in data set [4] was 19.6 mg/kg. For the same compound, the ED50 in data set [5] worked out at 24.2 mg/kg. In addition, in data set [6], the IC50 was found to be 9.16 nM and the Ki amounted to 5.32 nM. Also, the median effective dose (ED50) in [7] (setting [10]) is 25.7 mg/kg.
The compound `O=C(Nc1ccccc1-c1nnc(-c2ccccc2)o1)c1ccc(F)cc1` [Compound 7c, 4-fluoro-N-(2-(5-phenyl-1,3,4-oxadiazol-2-yl)phenyl)benzamide] registered a melting point of 189 to 190 °C. For the same compound, in [1], the 50% effective dose (ED50) was determined as 118 mg/kg. For the same compound, the ED50 in [2] came to 19.7 mg/kg. In data set [3], the 50% effective dose (ED50) worked out at 13.7 mg/kg. Moreover, the median effective dose (ED50) in data set [4] was 17.1 mg/kg. Also, the ED50 in data set [5] was 105 mg/kg. For the same compound, in [6], the IC50 worked out at 6.05 nM and the inhibition constant Ki was 3.51 nM. For the same compound, the 50% effective dose (ED50) in data set [7] (setting [10]) was found to be 30.9 mg/kg.
On to `CN1C(=O)CN=C(c2ccccc2)c2cc(Cl)ccc21` [Diazepam, reference compound], for which the ED50 in [1] amounted to 1.01 mg/kg; in data set [2] it was 1.69 mg/kg; in data set [3], 2.24 mg/kg; in data set [4] it was 1.98 mg/kg; in [5], 1.32 mg/kg; in [7] it was 2.27 mg/kg. Also, in [8], the “latency to enter the dark compartment in passive avoidance test vs control” value was “significant reduction in latency to enter the dark compartment”. Also, the “latency to fall in rotarod test vs control” value in data set [9] was “significant decrease in latency to fall”. Also, the IC50 in data set [6] was 1.71 nM. In addition, the inhibition constant Ki in [6] turned out to be 0.99 nM.
Consider `O=C(Nc1ccccc1-c1nnc(-c2ccccc2)o1)c1ccc(Cl)cc1` [Compound 7b, 4-chloro-N-(2-(5-phenyl-1,3,4-oxadiazol-2-yl)phenyl)benzamide], for which the melting point lay within 195 to 197 °C. Besides, in data set [1], the 50% effective dose (ED50) is 180 mg/kg. In [2], the 50% effective dose (ED50) came to 21.3 mg/kg. For the same compound, the ED50 in [3] came out at 11.8 mg/kg. Further, in [4], the ED50 is 19.4 mg/kg. The 50% effective dose (ED50) in [5] was 163 mg/kg. In data set [6], the IC50 worked out at 7.62 nM and the inhibition constant Ki stood at 4.43 nM. The median effective dose (ED50) in [7] (setting [10]) amounted to 31.5 mg/kg.
